Data taken from patent publication US20040171640A1, “Substituted 1-phenethylpiperidine compounds used as inter alia analgesics” (priority 2001, published 2004).

Key:
[1] = tested on: tail flick (pain latency) in mice; experiment: Analgesic testing by tail flick test in mice; format: in vivo; conditions: Mus musculus, read-out: Antinociceptive action in % relative to control group; for inhibition in vivo at 1 mg/kg: 1 mg/kg intravenous
Text: 2.) Analgesic Testing by Tail Flick Test in Mice
The mice were each individually put in a test cage and the base of the tail was exposed to the focused heat flux from an electric lamp (tail flick type 50/08/1.bc, Labtec, Dr. Hess). The lamp intensity was so set that the time from switching on of the lamp until sudden flicking away of the tail (pain latency) in untreated mice amounted to 3 to 5 seconds. Prior to administration of the solutions containing the compound according to the invention or the respective comparison solutions, the mice were pre-tested twice within five minutes and the average value of these measurements was calculated as a pre-test average value.
The solutions of the compound according to the invention of the general formula I and the comparison solutions were then administered intravenously. Pain was measured in each case 10, 20, 40 and 60 minutes after intravenous administration. The analgesic action was determined as an increase in pain latency (% of the maximum possible antinociceptive effect) in accordance with the following formula: […]
In this formula, the time T0 is the latency time prior to administration, the time T1 is the latency time after administration of active ingredient combination and the time T2 is the maximum exposure period (12 seconds)
2.) Analgesic Testing by Tail Flick Test in Mice:
The in-depth investigation into analgesic efficacy was performed using the tail flick test in mice, as described above.

[2] = tested on: phenylquinone-induced writhing in mice; experiment: Analgesic testing by phenylquinone-induced writhing test in mice; format: in vivo, male NMRI mice; conditions: Mus musculus, read-out: Antinociceptive action in % relative to control group; for inhibition in vivo at 10 mg/kg: 10 mg/kg intravenous
Protocol: 1.) Analgesic Testing by Writhing Test in Mice
The investigation into analgesic efficacy was performed by phenylquinone-induced writhing in mice (modified after: I. C. Hendershot J. Forsaith, J. Pharmacol. Exp. There. 125, 237-240 (1959)). The corresponding literature description is hereby introduced as a reference and is deemed to be part of the disclosure.
Male NMRI mice weighing from 25 to 30 g were used for this purpose. Groups of 10 animals per substance dose received, 10 minutes after intravenous administration of the compounds tested, 0.3 ml/mouse of a 0.02% aqueous solution of phenylquinone (phenylbenzoquinone, Sigma, Deisenhofen; solution prepared with addition of 5% of ethanol and stored in a water bath at 45° C.) administered intraperitoneally. The animals were placed individually in observation cages. A push button counter was used to record the number of pain-induced stretching movements (writhing reactions=straightening of the torso with stretching of the rear extremities) for 5-20 minutes after phenylquinone administration. The control was provided by animals who received only physiological common salt solution.
The compounds were tested at the standard dosage of 10 mg/kg. Inhibition of the writhing reactions by a substance was calculated according to the following formula: [formula]
1.) Analgesic Testing by Writhing Test in Mice:
The in-depth investigation into analgesic efficacy was performed using phenylquinone-induced writhing in mice, as described above.

Row | Compound | inhibition in vivo at 10 mg/kg [2] [%] | inhibition in vivo at 1 mg/kg [1] [%] | other results
1 | O=C(CC1CCN(CCc2ccccc2)CC1)Nc1ccccc1 [Example 1, 2-(1-Phenethyl-piperidin-4-yl)-N-phenylacetamide] |  |  | inhibition in vivo at 0.1 mg/kg ([1]; 0.1 mg/kg intravenous): 56%
2 | O=C(C=C1CCN(CCc2ccccc2)CC1)Nc1ccccc1 [Example 3, 2-(1-Phenethyl-piperidine-4-ylidene)-N-phenylacetamide] | 69 |  | 
3 | COc1ccccc1NC(=O)CC1CCN(CCc2ccccc2)CC1 [Example 4, N-(2-Methoxyphenyl)-2-(1-phenethylpiperidin-4-yl)-acetamide] | 100 |  | 
4 | COc1ccc(NC(=O)CC2CCN(CCc3ccccc3)CC2)cc1 [Example 5, N-(4-Methoxyphenyl)-2-(1-phenethyl-piperidin-4-yl)-acetamide] | 100 |  | 
5 | O=C(CC1CCN(CCc2ccccc2)CC1)Nc1ccccc1OC(F)(F)F [Example 6, 2-(1-Phenethyl-piperidin-4-yl)-N-(2-trifluoromethoxy-phenyl)acetamide] | 99 |  | 
6 | COc1ccc(NCCC2CCN(CCc3ccccc3)CC2)cc1 [Example 7, (4-Methoxyphenyl)-[2-(1-phenethylpiperidin-4-yl)ethyl]amine] | 100 |  | 
7 | Oc1ccccc1NCCC1CCN(CCc2ccccc2)CC1 [Example 8, 2-[2-(1-Phenethylpiperidin-4-yl)ethylamino]phenol] | 100 |  | 
8 | COc1cccc(NC(=O)CC2CCN(CCc3ccccc3)CC2)c1 [Example 9, N-(3-Methoxyphenyl)-2-(1-phenethyl-piperidin-4-yl)acetamide] |  |  | inhibition in vivo at 1 mg/kg ([2]; 1 mg/kg intravenous): 56%
9 | COc1ccc(NC(=O)CC2CCN(CCc3ccccc3)CC2)cc1Cl [Example 10, N-(3-Chloro-4-methoxyphenyl)-2-(1-phenethylpiperidin-4-yl)acetamide] | 100 |  | 
10 | O=C(CC1CCN(CCc2ccccc2)CC1)Nc1ccc(Cl)cc1F [Example 11, N-(4-Chloro-2-fluorophenyl)-2-(1-phenethylpiperidin-4-yl)acetamide] | 100 |  | 
11 | O=C(CC1CCN(CCc2ccccc2)CC1)Nc1cccc(C(F)(F)F)c1 [Example 12, 2-(1-Phenethylpiperidin-4-yl)-N-(3-trifluoromethyl-phenyl)acetamide] |  | 21 | 
12 | FC(F)(F)c1cccc(NCCC2CCN(CCc3ccccc3)CC2)c1 [Example 13, [2-(1-Phenethyl-piperidin-4-yl)ethyl]-(3-trifluoromethyl-phenyl)amine] |  | 31 | 
13 | COc1cccc(NCCC2CCN(CCc3ccccc3)CC2)c1 [Example 14, (3-Methoxyphenyl)-[2-(1-phenethylpiperidin-4-yl)ethyl]amine] | 100 |  | 
14 | Oc1ccc(NCCC2CCN(CCc3ccccc3)CC2)cc1 [Example 15, 4-[2-(1-Phenethylpiperidin-4-yl)ethylamino]phenol] | 100 |  | 
15 | Fc1cc(Cl)ccc1NCCC1CCN(CCc2ccccc2)CC1 [Example 16, (4-Chloro-2-fluorophenyl)-[2-(1-phenethylpiperidin-4-yl)ethyl]amine] | 80 |  | inhibition in vivo at 10 mg/kg ([1]; 10 mg/kg intravenous): 31%
16 | Oc1cccc(NCCC2CCN(CCc3ccccc3)CC2)c1 [Example 17, 3-[2-(1-Phenethylpiperidin-4-yl)ethylamino]phenol] | 100 |  | 
17 | COc1ccc(N(CCC2CCN(CCc3ccccc3)CC2)C(C)=O)cc1Cl [Example 18, N-(3-Chloro-4-methoxyphenyl)-N-[2-(1-phenethylpiperidin-4-yl)ethyl]acetamide] | 100 |  | 
18 | CCC(=O)N(CCC1CCN(CCc2ccccc2)CC1)c1ccc(OC)c(Cl)c1 [Example 19, N-(3-Chloro-4-methoxyphenyl)-N-[2-(1-phenethylpiperidin-4-yl)ethyl]propionamide] | 100 | 35 | 
19 | COc1ccc(N(CCC2CCN(CCc3ccccc3)CC2)C(=O)c2ccccc2)cc1Cl [Example 20, N-(3-Chloro-4-methoxyphenyl)-N-[2-(1-phenethylpiperidin-4-yl)ethyl]benzamide] | 88 | 23 | 
20 | CC(=O)N(CCC1CCN(CCc2ccccc2)CC1)c1cccc(C(F)(F)F)c1 [Example 21, N-[2-(1-Phenethylpiperidin-4-yl)ethyl]-N-(3-trifluoromethylphenyl)acetamide] | 100 | 34 | 
21 | CC(=O)N(CCC1CCN(CCc2ccccc2)CC1)c1ccccc1 [Example 22, N-[2-(1-Phenethylpiperidin-4-yl)ethyl]-N-phenylacetamide] |  | 24 | 
22 | CCC(=O)N(CCC1CCN(CCc2ccccc2)CC1)c1ccccc1 [Example 23, N-[2-(1-Phenethylpiperidin-4-yl)ethyl]-N-phenylpropionamide] | 99 |  | 
23 | O=C(c1ccccc1)N(CCC1CCN(CCc2ccccc2)CC1)c1ccccc1 [Example 24, N-[2-(1-Phenethylpiperidin-4-yl)ethyl]-N-phenylbenzamide] | 100 | 24 | 
